Tests used:
galium = assay: Test A postemergence herbicide test; assay type: in vivo, Galium aparine
Summary of the method: (§1)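 Young potted plants in a loam–sand mix, one- to two-leaf stage and 2–10 cm tall, receive the test chemical postemergence and stay in a greenhouse for approximately 10 days. Injury is then judged by eye against untreated plants, scored 0 (none) to 100 (complete control).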

blackgrass = assay: Test A postemergence herbicide test; assay type: in vivo, Alopecurus myosuroides
Summary of the method: as §1

ryegrass, Italian = assay: Test A pre-/postemergence herbicide test; assay type: in vivo, Lolium multiflorum; settings: for Plant response rating, Ryegrass, Italian: 0 to 100 scale
Summary of the method: (§2)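 Visual 0–100 ratings (100 = complete control) made about 10 days after treatment, greenhouse-held plants compared with untreated controls. Treatments: postemergence sprays on one- to two-leaf plants (2–10 cm tall) and preemergence directed soil sprays after planting in loam–sand, chemicals formulated in non-phytotoxic solvent containing surfactant.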

giant foxtail = assay: Test A pre-/postemergence herbicide test; assay type: in vivo, Setaria faberii
Summary of the method: as §2

ragweed = assay: Test A pre-/postemergence herbicide test; assay type: in vivo, Ambrosia elatior; settings: for Plant response rating, Ragweed: 0 to 100 scale
Summary of the method: as §2

rice = assay: Test C flooded paddy test; assay type: in vivo, Oryza sativa; settings: Flood
Summary of the method: (§3)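 Visual ratings from 0, no effect, to 100, complete control, were made against untreated controls after 13–15 greenhouse days. Compounds had gone straight into paddy water 3 cm above the soil, kept at that depth, on 2-leaf-stage plants.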

wheat = assay: Test A pre-/postemergence herbicide test; assay type: in vivo, Triticum aestivum
Summary of the method: as §2

ducksalad = assay: Test C flooded paddy test; assay type: in vivo, Heteranthera limosa; settings: Flood
Summary of the method: as §3

barnyardgrass [1] = assay: Test A pre-/postemergence herbicide test; assay type: in vivo, Echinochloa crus-galli
Summary of the method: as §2

corn = assay: Test A pre-/postemergence herbicide test; assay type: in vivo, Zea mays
Summary of the method: as §2

sedge, umbrella = assay: Test C flooded paddy test; assay type: in vivo, Cyperus difformis; settings: Flood
Summary of the method: as §3

barnyardgrass [2] = assay: Test C flooded paddy test; assay type: in vivo, Echinochloa crus-galli; settings: Flood
Summary of the method: as §3

pigweed = assay: Test A pre-/postemergence herbicide test; assay type: in vivo, Amaranthus retroflexus
Summary of the method: as §2

kochia = assay: Test A pre-/postemergence herbicide test; assay type: in vivo, Kochia scoparia; settings: for Plant response rating, Kochia: 0 to 100 scale
Summary of the method: as §2

morningglory = assay: Test A pre-/postemergence herbicide test; assay type: in vivo, Ipomoea spp.; settings: 1000 g ai/ha
Summary of the method: as §2

crabgrass, large = assay: Test A pre-/postemergence herbicide test; assay type: in vivo, Digitaria sanguinalis; settings: 1000 g ai/ha
Summary of the method: as §2

velvetleaf = assay: Test A pre-/postemergence herbicide test; assay type: in vivo, Abutilon theophrasti; settings: 1000 g ai/ha
Summary of the method: as §2

[3] = 125 g ai/ha, 0 to 100 scale, 0 is no effect, 100 is complete control
[4] = 125 g ai/ha, visual rating, 0 no effect, 100 complete control, approximately 10 days, preemergence
[5] = Postemergence, 125 g ai/ha, 0 is no effect, 100 is complete control
[6] = preemergence, 500 g ai/ha, 0 is no effect and 100 is complete control
[7] = 125 g ai/ha, visual rating, 0 to 100 scale, 0 no effect, 100 complete control, approximately 10 days, preemergence
[8] = Postemergence, 125 g ai/ha, 0 to 100 scale, 0 is no effect, 100 is complete control
[9] = preemergence, 500 g ai/ha, 0 to 100 scale, 0 is no effect and 100 is complete control
[10] = 125 g ai/ha, scale of 0 to 100 where 0 is no effect and 100 is complete control, 13 to 15 days
[11] = 250 g ai/ha, scale of 0 to 100 where 0 is no effect and 100 is complete control, 13 to 15 days
[12] = Postemergence, 0 to 100 scale (0 no effect, 100 complete control)
[13] = Preemergence, visual rating on 0 to 100 scale (0 no effect, 100 complete control), approx. 10 days
[14] = Postemergence, 1000 g ai/ha, 0 to 100 scale (0 no effect, 100 complete control)
[15] = Preemergence, 1000 g ai/ha, visual rating on 0 to 100 scale (0 no effect, 100 complete control), approx. 10 days
[16] = 62 g ai/ha, scale of 0 to 100 where 0 is no effect and 100 is complete control, 13 to 15 days

O=C1NC[C@@H](c2cccc(C(F)(F)F)c2)[C@@H]1C(=O)Nc1cccc(F)c1F [Compound 205]
Plant response rating, Galium (galium; [3]): 30
Galium plant response rating (0 to 100 scale, 0 is no effect, 100 is complete control) (galium; 500 g ai/ha): 60
Plant response rating, Blackgrass (blackgrass; [3]): 0
Blackgrass plant response rating (0 to 100 scale, 0 is no effect, 100 is complete control) (blackgrass; 500 g ai/ha): 70
Plant response rating, Ryegrass, Italian (ryegrass, Italian; [4]): 0
Plant response rating, Ryegrass, Italian (ryegrass, Italian; [5]): 0
Ryegrass, Italian plant response rating (0 to 100 scale, 0 is no effect, 100 is complete control) (ryegrass, Italian; Postemergence, 500 g ai/ha): 0
Plant response rating, Ryegrass, Italian (ryegrass, Italian; [6]): 20
Plant response rating, Foxtail, Giant (giant foxtail; [7]): 60
Plant response rating, Foxtail, Giant (giant foxtail; [8]): 70
Foxtail, Giant plant response rating (0 to 100 scale, 0 is no effect, 100 is complete control) (giant foxtail; Postemergence, 500 g ai/ha): 90
Plant response rating, Foxtail, Giant (giant foxtail; [9]): 90
Plant response rating, Ragweed (ragweed; [4]): 0
Plant response rating, Ragweed (ragweed; [5]): 0
Ragweed plant response rating (0 to 100 scale, 0 is no effect, 100 is complete control) (ragweed; Postemergence, 500 g ai/ha): 0
Plant response rating, Ragweed (ragweed; [6]): 30
Plant response rating, Rice (rice; [10]): 0
Plant response rating, Rice (rice; [11]): 0
Plant response rating, Rice (rice; 500 g ai/ha, scale 0 to 100): 0
Plant response rating, Rice (rice; 1000 g ai/ha, scale 0 to 100): 0
Plant response rating, Wheat (wheat; [8]): 0
Wheat plant response rating (0 to 100 scale, 0 is no effect, 100 is complete control) (wheat; Postemergence, 500 g ai/ha): 40
Plant response rating, Ducksalad (ducksalad; [10]): 0
Plant response rating, Ducksalad (ducksalad; [11]): 0
Plant response rating, Ducksalad (ducksalad; 500 g ai/ha, scale 0 to 100): 50
Plant response rating, Ducksalad (ducksalad; 1000 g ai/ha, scale 0 to 100): 65
Plant response rating, Barnyardgrass (barnyardgrass [1]; [7]): 30
Plant response rating, Barnyardgrass (barnyardgrass [1]; [8]): 40
Barnyardgrass plant response rating (0 to 100 scale, 0 is no effect, 100 is complete control) (barnyardgrass [1]; Postemergence, 500 g ai/ha): 70
Plant response rating, Barnyardgrass (barnyardgrass [1]; [9]): 80
Plant response rating, Corn (corn; [8]): 0
Corn plant response rating (0 to 100 scale, 0 is no effect, 100 is complete control) (corn; Postemergence, 500 g ai/ha): 0
Plant response rating, Sedge, Umbrella (sedge, umbrella; [10]): 0
Plant response rating, Sedge, Umbrella (sedge, umbrella; [11]): 0
Plant response rating, Sedge, Umbrella (sedge, umbrella; 500 g ai/ha, scale 0 to 100): 0
Plant response rating, Sedge, Umbrella (sedge, umbrella; 1000 g ai/ha, scale 0 to 100): 0
Plant response rating, Barnyardgrass (barnyardgrass [2]; [10]): 0
Plant response rating, Barnyardgrass (barnyardgrass [2]; [11]): 20
Plant response rating, Barnyardgrass (barnyardgrass [2]; 500 g ai/ha, scale 0 to 100): 30
Plant response rating, Barnyardgrass (barnyardgrass [2]; 1000 g ai/ha, scale 0 to 100): 45
Plant response rating, Pigweed (pigweed; [7]): 0
Plant response rating, Pigweed (pigweed; [8]): 0
Pigweed plant response rating (0 to 100 scale, 0 is no effect, 100 is complete control) (pigweed; Postemergence, 500 g ai/ha): 30
Plant response rating, Pigweed (pigweed; [9]): 20
Plant response rating, Kochia (kochia; [4]): 20
Plant response rating, Kochia (kochia; [5]): 0
Kochia plant response rating (0 to 100 scale, 0 is no effect, 100 is complete control) (kochia; Postemergence, 500 g ai/ha): 40
Plant response rating, Kochia (kochia; [6]): 50

O=C1NCC(c2ccc(Cl)c(Cl)c2)C1C(=O)Nc1cccc(F)c1F (racemic) [Compound 25]
Plant response rating, Morningglory (morningglory; [12]): 10
Plant response rating, Morningglory (morningglory; [13]): 0
Plant response rating, Crabgrass, Large (crabgrass, large; [12]): 80
Plant response rating, Crabgrass, Large (crabgrass, large; [13]): 90
Plant response rating, Foxtail, Giant (giant foxtail; [14]): 90
Plant response rating, Foxtail, Giant (giant foxtail; [15]): 90
Plant response rating, Velvetleaf (velvetleaf; [12]): 10
Plant response rating, Velvetleaf (velvetleaf; [13]): 0
Plant response rating, Rice (rice; [16]): 0
Plant response rating, Rice (rice; 250 g ai/ha, scale 0 to 100): 0
Plant response rating, Wheat (wheat; [14]): 0
Plant response rating, Wheat (wheat; [15]): 0
Plant response rating, Ducksalad (ducksalad; [16]): 0
Plant response rating, Ducksalad (ducksalad; 250 g ai/ha, scale 0 to 100): 60
Plant response rating, Barnyardgrass (barnyardgrass [1]; [14]): 80
Plant response rating, Barnyardgrass (barnyardgrass [1]; [15]): 80
Plant response rating, Corn (corn; [14]): 0
Plant response rating, Corn (corn; [15]): 0
Plant response rating, Sedge, Umbrella (sedge, umbrella; [16]): 0
Plant response rating, Sedge, Umbrella (sedge, umbrella; 250 g ai/ha, scale 0 to 100): 0
Plant response rating, Barnyardgrass (barnyardgrass [2]; [16]): 0
Plant response rating, Barnyardgrass (barnyardgrass [2]; 250 g ai/ha, scale 0 to 100): 0
Plant response rating, Pigweed (pigweed; [14]): 0
Plant response rating, Pigweed (pigweed; [15]): 0

Reference: patent publication US10294202B2, “Pyrrolidinones as herbicides” (FMC Corporation, priority 2013, dated 2019)
